In ChEMBL document CHEMBL5143704, “Discovery of 2,4-diarylaminopyrimidine derivatives bearing dithiocarbamate moiety as novel ALK inhibitors” (Bioorg Med Chem, 2022) one finds IC50, viability and Activity data, which are given here for 10 compounds.

One may read the IC50 as the concentration at which inhibition is half-maximal.

The test system of assay [1] is NCI-H2228. The assay is described as follows: cells. Particulars: Homo sapiens, NCI-H2228, 96 h.
Description: Antiproliferative activity against EML4-ALK positive human NCI-H2228 cells assessed as inhibition of cell growth incubated for 96 hrs by MTT assay
Assay [2] deals with A549. The assay is described as follows: cells. The conditions noted are these: Homo sapiens, A549, 96 h.
Description: Antiproliferative activity against ALK-negative human A549 cells assessed as inhibition of cell growth incubated for 96 hrs by MTT assay
The test system of assay [3] is HCT-116. The assay can be described thus: cells. Particulars: Homo sapiens, HCT-116, 96 h.
Description: Antiproliferative activity against ALK-negative human HCT-116 cells assessed as inhibition of cell growth incubated for 96 hrs by MTT assay
The test system of assay [4] is KARPAS-299. The assay can be described thus: cells. Particulars: Homo sapiens, KARPAS-299, 96 h.
Description: Antiproliferative activity against NPM-ALK positive human KARPAS-299 cells assessed as inhibition of cell growth incubated for 96 hrs by CCK-8 assay
The target of assay [5] is ALK tyrosine kinase receptor (Homo sapiens, UniProt Q9UM73). The assay is described as follows: Inhibition of wild type N-terminal GST tagged ALK cytoplasmic domain (1058 to 1620 end residues) (unknown origin) expressed in Sf21 cells incubated for 1 hr in presence of ATP.
Assay [6] concerns NCI-H2228. The assay is described as follows: Induction of apoptosis in human NCI-H2228 cells assessed as viable cells at 0.2 uM incubated for 48 hrs by annexinV-FITC/propidium iodide staining based flow cytometry analysis (reference value: 93.63%). Particulars: read-out: Activity. Type of assay: functional. In general terms: In flow cytometry, cells or beads pass a laser one at a time.

The test system of assay [7] is NCI-H2228. The assay can be described thus: Induction of apoptosis in human NCI-H2228 cells assessed as late apoptotic cells at 0.2 uM incubated for 48 hrs by annexinV-FITC/propidium iodide staining based flow cytometry analysis (reference value: 2.40%). Type of assay: functional.
Assay [8] has as its system NCI-H2228. The assay can be described thus: Induction of cell cycle arrest in human NCI-H2228 cells assessed as accumulation of cells at G2/M phase at 0.6 uM incubated for 48 hrs propidium iodide staining based flow cytometric analysis (reference value: 12.02%). Type of assay: functional.
Assay [9] concerns NCI-H2228. The assay is described as follows: Induction of apoptosis in human NCI-H2228 cells assessed as necrotic at 0.6 uM incubated for 48 hrs by annexinV-FITC/propidium iodide staining based flow cytometry analysis (reference value: 2.12%). Type of assay: functional.
Assay [10] concerns NCI-H2228. The assay can be described thus: Induction of apoptosis in human NCI-H2228 cells assessed as early apoptotic cells at 0.6 uM incubated for 48 hrs by annexinV-FITC/propidium iodide staining based flow cytometry analysis (reference value: 1.84%). It is filed as functional.
The test system of assay [11] is NCI-H2228. The assay can be described thus: Induction of apoptosis in human NCI-H2228 cells assessed as necrotic at 0.2 uM incubated for 48 hrs by annexinV-FITC/propidium iodide staining based flow cytometry analysis (reference value: 2.12%). It is filed as functional.
Assay [12] deals with NCI-H2228. The assay is described as follows: Induction of cell cycle arrest in human NCI-H2228 cells assessed as accumulation of cells at G1 phase at 1.8 uM incubated for 48 hrs propidium iodide staining based flow cytometric analysis (reference value: 59.82%). Type of assay: functional.
In assay [13] the test system is NCI-H2228. The assay is described as follows: Induction of cell cycle arrest in human NCI-H2228 cells assessed as accumulation of cells at S phase at 0.6 uM incubated for 48 hrs propidium iodide staining based flow cytometric analysis (reference value: 28.16%). It is filed as functional.
For assay [14], the system named is NCI-H2228. The assay is described as follows: Induction of apoptosis in human NCI-H2228 cells assessed as early apoptotic cells at 0.2 uM incubated for 48 hrs by annexinV-FITC/propidium iodide staining based flow cytometry analysis (reference value: 1.84%). It is filed as functional.
In assay [15] the test system is NCI-H2228. The assay can be described thus: Induction of cell cycle arrest in human NCI-H2228 cells assessed as accumulation of cells at S phase at 0.2 uM incubated for 48 hrs propidium iodide staining based flow cytometric analysis (reference value: 28.16%). Type of assay: functional.
The subject of assay [16] is NCI-H2228. The assay is described as follows: Induction of cell cycle arrest in human NCI-H2228 cells assessed as accumulation of cells at G2/M phase at 1.8 uM incubated for 48 hrs propidium iodide staining based flow cytometric analysis (reference value: 12.02%). It is filed as functional.
Assay [17] deals with NCI-H2228. The assay can be described thus: Induction of apoptosis in human NCI-H2228 cells assessed as early apoptotic cells at 1.8 uM incubated for 48 hrs by annexinV-FITC/propidium iodide staining based flow cytometry analysis (reference value: 1.84%). It is filed as functional.
The test system of assay [18] is NCI-H2228. The assay is described as follows: Induction of apoptosis in human NCI-H2228 cells assessed as necrotic at 1.8 uM incubated for 48 hrs by annexinV-FITC/propidium iodide staining based flow cytometry analysis (reference value: 2.12%). Type of assay: functional.
Assay [19] relates to NCI-H2228. The assay is described as follows: Induction of cell cycle arrest in human NCI-H2228 cells assessed as accumulation of cells at G1 phase at 0.2 uM incubated for 48 hrs propidium iodide staining based flow cytometric analysis (reference value: 59.82%). It is filed as functional.
Assay [20] concerns NCI-H2228. The assay can be described thus: Induction of apoptosis in human NCI-H2228 cells assessed as viable cells at 1.8 uM incubated for 48 hrs by annexinV-FITC/propidium iodide staining based flow cytometry analysis (reference value: 93.63%). It is filed as functional. Particulars: read-out: Activity.
Assay [21] deals with NCI-H2228. The assay can be described thus: Induction of apoptosis in human NCI-H2228 cells assessed as viable cells at 0.6 uM incubated for 48 hrs by annexinV-FITC/propidium iodide staining based flow cytometry analysis (reference value: 93.63%). Particulars: read-out: Activity. It is filed as functional.
Assay [22] concerns NCI-H2228. The assay can be described thus: Induction of cell cycle arrest in human NCI-H2228 cells assessed as accumulation of cells at G2/M phase at 0.2 uM incubated for 48 hrs propidium iodide staining based flow cytometric analysis (reference value: 12.02%). Type of assay: functional.
Assay [23] deals with NCI-H2228. The assay can be described thus: Induction of apoptosis in human NCI-H2228 cells assessed as late apoptotic cells at 1.8 uM incubated for 48 hrs by annexinV-FITC/propidium iodide staining based flow cytometry analysis (reference value: 2.40%). It is filed as functional.
In assay [24] the test system is NCI-H2228. The assay is described as follows: Induction of cell cycle arrest in human NCI-H2228 cells assessed as accumulation of cells at G1 phase at 0.6 uM incubated for 48 hrs propidium iodide staining based flow cytometric analysis (reference value: 59.82%). Type of assay: functional.
Assay [25] has as its system NCI-H2228. The assay is described as follows: Induction of cell cycle arrest in human NCI-H2228 cells assessed as accumulation of cells at S phase at 1.8 uM incubated for 48 hrs propidium iodide staining based flow cytometric analysis (reference value: 28.16%). It is filed as functional.
Assay [26] deals with NCI-H2228. The assay is described as follows: Induction of apoptosis in human NCI-H2228 cells assessed as late apoptotic cells at 0.6 uM incubated for 48 hrs by annexinV-FITC/propidium iodide staining based flow cytometry analysis (reference value: 2.40%). Type of assay: functional.

Chain of ALK tyrosine kinase receptor (Q9UM73 whole entry, the tested form may be a part): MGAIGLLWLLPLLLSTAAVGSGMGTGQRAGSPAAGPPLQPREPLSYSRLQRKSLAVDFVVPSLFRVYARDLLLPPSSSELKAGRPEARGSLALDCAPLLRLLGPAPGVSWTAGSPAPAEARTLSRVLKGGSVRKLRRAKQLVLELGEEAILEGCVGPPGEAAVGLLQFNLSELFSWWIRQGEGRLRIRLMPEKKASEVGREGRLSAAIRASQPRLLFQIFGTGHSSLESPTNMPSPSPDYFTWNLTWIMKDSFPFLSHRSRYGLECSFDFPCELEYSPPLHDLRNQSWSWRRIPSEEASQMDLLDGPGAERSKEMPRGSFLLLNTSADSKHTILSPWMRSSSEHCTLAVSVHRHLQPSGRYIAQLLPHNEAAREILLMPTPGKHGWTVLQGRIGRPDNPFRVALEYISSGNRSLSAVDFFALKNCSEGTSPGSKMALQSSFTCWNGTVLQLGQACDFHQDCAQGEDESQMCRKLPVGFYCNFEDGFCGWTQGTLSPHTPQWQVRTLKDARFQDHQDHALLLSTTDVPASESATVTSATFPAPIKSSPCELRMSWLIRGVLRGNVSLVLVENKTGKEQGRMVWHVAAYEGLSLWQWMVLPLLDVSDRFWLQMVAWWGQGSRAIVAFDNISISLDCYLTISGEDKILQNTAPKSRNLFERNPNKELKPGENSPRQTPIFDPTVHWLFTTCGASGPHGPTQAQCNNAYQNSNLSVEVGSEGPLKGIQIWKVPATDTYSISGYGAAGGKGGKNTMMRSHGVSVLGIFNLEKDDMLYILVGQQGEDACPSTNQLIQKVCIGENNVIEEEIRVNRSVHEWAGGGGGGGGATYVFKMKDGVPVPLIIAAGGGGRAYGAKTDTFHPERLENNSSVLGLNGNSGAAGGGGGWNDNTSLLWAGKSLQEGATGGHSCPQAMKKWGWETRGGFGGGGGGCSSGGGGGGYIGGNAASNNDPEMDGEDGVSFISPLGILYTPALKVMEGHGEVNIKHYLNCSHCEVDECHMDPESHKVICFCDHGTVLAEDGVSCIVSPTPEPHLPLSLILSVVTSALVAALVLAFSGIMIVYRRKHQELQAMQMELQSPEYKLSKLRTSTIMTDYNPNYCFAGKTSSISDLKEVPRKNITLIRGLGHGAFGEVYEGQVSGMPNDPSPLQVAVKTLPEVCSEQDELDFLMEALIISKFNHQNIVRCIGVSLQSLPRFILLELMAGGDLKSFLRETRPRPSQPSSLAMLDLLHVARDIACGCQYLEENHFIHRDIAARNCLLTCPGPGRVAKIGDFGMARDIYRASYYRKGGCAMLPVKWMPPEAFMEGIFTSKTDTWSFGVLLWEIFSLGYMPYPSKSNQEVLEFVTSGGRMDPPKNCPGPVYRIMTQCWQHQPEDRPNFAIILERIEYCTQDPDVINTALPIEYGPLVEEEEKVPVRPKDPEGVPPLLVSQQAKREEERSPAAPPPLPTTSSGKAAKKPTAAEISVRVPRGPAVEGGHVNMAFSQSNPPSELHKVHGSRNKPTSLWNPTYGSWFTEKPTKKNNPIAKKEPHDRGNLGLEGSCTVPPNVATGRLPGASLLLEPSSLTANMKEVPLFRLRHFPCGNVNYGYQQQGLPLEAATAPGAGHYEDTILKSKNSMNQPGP

`Cc1cc(Nc2ncc(Cl)c(Nc3ccccc3S(=O)(=O)C(C)C)n2)c(OC(C)C)cc1C1CCN(C(=O)SCC(=S)N2CCNC(C)C2)CC1` (stereo not given): the IC50 in assay [1] was 160 nM; in [2], more than 10000 nM; in [3], 2840 nM; in [4], 210 nM; in assay [5] it was more than 100 nM.
As for `Cc1cc(Nc2ncc(Cl)c(Nc3ccccc3S(=O)(=O)C(C)C)n2)c(OC(C)C)cc1C1CCN(C(=O)SCC(=S)N2CCS(=O)(=O)CC2)CC1`, in [6], the viability at 0.2 µM was 89.8%. For the same compound, the Activity in assay [7] is recorded as 3.65%; in assay [8] it was 18.15%; in assay [9], 3.5%; in assay [10], 5.7%; in [11] it was 2.24%; in [12], 56.55%. Further, the Activity in assay [13] came out at 22.74%; in assay [14], 4.31%; in [15], 24.71%; in [16], 27.35%; in assay [17], 8.84%; in assay [18], 4.04%. For the same compound, the Activity in assay [19] amounted to 59.7%; in assay [22] it was 15.59%; in assay [23] it was 8.06%; in assay [24], 59.11%; in [25], 16.1%; in assay [26] it was 6.37%. For the same compound, the IC50 in assay [1] is 70 nM; in assay [2] it was more than 10000 nM; in assay [3], 5530 nM; in [4], 70 nM. The viability at 1.8 µM in [20] stood at 79.1%. For the same compound, in [21], the viability at 0.6 µM is 84.4%.
Turning to `Cc1cc(Nc2ncc(Cl)c(Nc3ccccc3S(=O)(=O)C(C)C)n2)c(OC(C)C)cc1C1CCN(C(=O)SCC(=S)N2CCN(C)CC2)CC1`, the IC50 in assay [1] is 320 nM; in assay [2], more than 10000 nM; in [3], 2700 nM; in [4], 140 nM; in [5] it was more than 100 nM.
For `CCN(CC)CCCSC(=S)N1CCC(c2cc(OC(C)C)c(Nc3ncc(Cl)c(Nc4ccccc4S(=O)(=O)C(C)C)n3)cc2C)CC1`, in that order: 490 nM, more than 10000 nM, more than 10000 nM, 500 nM and more than 100 nM.
For `Cc1cc(Nc2ncc(Cl)c(Nc3ccccc3S(=O)(=O)C(C)C)n2)c(OC(C)C)cc1C1CCN(C(=O)SCC(=S)N2CCN(S(C)(=O)=O)CC2)CC1`, the IC50 is 160 nM in assay [1], more than 10000 nM in assay [2], 3540 nM in assay [3] and 340 nM in [4].
`Cc1cc(Nc2ncc(Cl)c(Nc3ccccc3S(=O)(=O)C(C)C)n2)c(OC(C)C)cc1C1CCN(C(=O)SCC(=S)N2CCN(C3CCCC3)CC2)CC1`: the IC50 is 350 nM in [1], more than 10000 nM in assay [2], 5810 nM in assay [3] and 1700 nM in assay [4].
In the case of `Cc1cc(Nc2ncc(Cl)c(Nc3ccccc3S(=O)(=O)C(C)C)n2)c(OC(C)C)cc1C1CCN(C(=O)SCC(=S)N2CCC[C@H]2CO)CC1`, the IC50 was 220 nM in assay [1], more than 10000 nM in [2], 4890 nM in assay [3] and 110 nM in assay [4].
As to `Cc1cc(Nc2ncc(Cl)c(Nc3ccccc3S(=O)(=O)C(C)C)n2)c(OC(C)C)cc1C1CCN(C(=O)SCC(=S)N(C)C)CC1`, the IC50 is 850 nM in assay [1], more than 10000 nM in [2], 2730 nM in assay [3] and 230 nM in assay [4].
On to `Cc1cc(Nc2ncc(Cl)c(Nc3ccccc3S(=O)(=O)C(C)C)n2)c(OC(C)C)cc1C1CCN(C(=S)SCC(=O)N2CCC(C)CC2)CC1`, for which the IC50 in assay [1] is 2030 nM; in assay [2], more than 10000 nM; in [3], 5460 nM; in [4] it was 310 nM.
Regarding `Cc1cc(Nc2ncc(Cl)c(Nc3ccccc3S(=O)(=O)C(C)C)n2)c(OC(C)C)cc1C1CCN(C(=S)SCCN2CCCCC2)CC1`, the IC50 is 280 nM in assay [1]; more than 10000 nM in assay [2]; 2450 nM in assay [3]; 90 nM in assay [4]; more than 100 nM in assay [5].
